In experiment [1] the target is Adenosine kinase (Homo sapiens, UniProt P55263). Briefly: Inhibition of adenosine phosphorylation in confluent IMR-32 (human neuroblastoma) cells. The experiment is classed as functional, cell-based.
In experiment [2] the target is Adenosine kinase (Rattus norvegicus, UniProt Q64640). Briefly: In vitro inhibition of Adenosine kinase (AK).
Adenosine kinase (Rattus norvegicus, UniProt Q64640), sequence (Q64640 whole entry): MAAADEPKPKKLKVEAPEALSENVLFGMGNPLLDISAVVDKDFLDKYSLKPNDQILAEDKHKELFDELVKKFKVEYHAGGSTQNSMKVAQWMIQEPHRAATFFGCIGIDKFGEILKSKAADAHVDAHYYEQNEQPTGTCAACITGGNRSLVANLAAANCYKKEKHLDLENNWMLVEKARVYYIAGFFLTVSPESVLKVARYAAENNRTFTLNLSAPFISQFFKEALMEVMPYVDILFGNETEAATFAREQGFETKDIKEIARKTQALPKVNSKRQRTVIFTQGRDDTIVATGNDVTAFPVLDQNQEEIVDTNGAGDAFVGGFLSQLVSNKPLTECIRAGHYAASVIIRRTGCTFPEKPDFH

Adenosine kinase (Homo sapiens, UniProt P55263), sequence (P55263 whole entry): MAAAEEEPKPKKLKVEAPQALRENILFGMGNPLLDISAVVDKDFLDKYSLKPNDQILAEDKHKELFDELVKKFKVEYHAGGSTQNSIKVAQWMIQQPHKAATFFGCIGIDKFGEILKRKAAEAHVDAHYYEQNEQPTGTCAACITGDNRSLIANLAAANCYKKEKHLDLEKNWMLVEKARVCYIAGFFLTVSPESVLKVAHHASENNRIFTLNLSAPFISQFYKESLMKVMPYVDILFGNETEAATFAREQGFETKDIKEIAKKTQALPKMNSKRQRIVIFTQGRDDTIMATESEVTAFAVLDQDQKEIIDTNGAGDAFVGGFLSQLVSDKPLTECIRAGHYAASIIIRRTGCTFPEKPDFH

`NC[C@H]1O[C@@H](n2cnc3c(N)ncnc32)[C@H](O)[C@@H]1O`: the IC50 against Adenosine kinase [1] is 6330 nM; at Adenosine kinase [2] it was 15 nM.
On the same counts, the results for `CN(C)c1ccc(-c2cc(C3CCCCC3)c3c(N)ncnc3n2)cc1` are 467 nM and 8.3 nM.
`COc1ccc(-c2cc3c(N)ncnc3nc2-c2ccc(N(C)C)cc2)cc1`: the half-maximal inhibitory concentration (IC50) was found to be 567 nM against Adenosine kinase [1] and 91.7 nM against Adenosine kinase [2].
The corresponding values for `CN(C)c1ccc(-c2ccc3c(N)ncnc3n2)cc1` are over 10000 nM and 773 nM.
On the same counts, the results for `Nc1ncnc(N[C@@H]2O[C@H](CO)[C@@H](O)[C@H]2O)c1[N+](=O)[O-]` are 26000 nM and 2000 nM.
On the same counts, the results for `CN(C)c1ccc(-c2nc3ncnc(N)c3nc2-c2ccccc2)cc1` are 333 nM and 25 nM.
On to `Nc1ncnc2nc(-c3ccc([N+](=O)[O-])cc3)cnc12`, for which the IC50 at Adenosine kinase [1] was over 10000 nM; against Adenosine kinase [2], 4750 nM.
The corresponding values for `COC(=O)c1cccc(-c2cc3c(N)ncnc3nc2-c2ccc(N(C)C)cc2)c1` are 700 nM and 66.7 nM.
On the same counts, the results for `Nc1ncnc2nc(-c3ccccc3)cnc12` are over 10000 nM and 5500 nM.
Turning to `Nc1ncnc2nc(-c3ccc(N4CCOCC4)cc3)cnc12`, the IC50 is 1000 nM against Adenosine kinase [1] and 400 nM at Adenosine kinase [2].
The corresponding values for `Nc1ncnc2nc(-c3ccc(N4CCOCC4)nc3)cc(-c3cccc(Br)c3)c12` are 50 nM and 1.7 nM.
The corresponding values for `C[C@H]1O[C@@H](n2cc(-c3ccccc3)c3c(Nc4ccc(F)cc4)ncnc32)[C@H](O)[C@@H]1O` are 134 nM and 2.8 nM.
With `CN(C)c1ccc(-c2cnc3c(N)ncnc3n2)cc1`, the IC50 on Adenosine kinase [1] was found to be 3600 nM; against Adenosine kinase [2] it was 440 nM.
With `CN(C)c1ccc(-c2nc3ncnc(N)c3cc2-c2ccc(C(C)(C)C)cc2)cc1`, the values for the IC50 against Adenosine kinase [1] and against Adenosine kinase [2] were over 1000 nM and 62.5 nM, respectively.
The corresponding values for `Cc1ccc(-c2cc3c(N)ncnc3nc2-c2ccc(N(C)C)cc2)cc1` are 500 nM and 73.3 nM.
On the same counts, the results for `Nc1ccc(-c2cnc3c(N)ncnc3n2)cc1` are over 10000 nM and 1750 nM.
On the same counts, the results for `COc1ccc(-c2cnc3c(N)ncnc3n2)cc1` are over 10000 nM and 2000 nM.
As for `CN(C)c1ccc(-c2cc(-c3ccccc3)c3c(N)ncnc3n2)cc1`, the 50% inhibitory concentration (IC50) at Adenosine kinase [1] was 467 nM.
Take `CN(C)c1ccc(-c2cc(-c3cccc(Br)c3)c3c(N)ncnc3n2)cn1`: the IC50 at Adenosine kinase [1] stood at 32 nM; against Adenosine kinase [2], 1.8 nM.
The compound `CN(C)c1ccc(-c2cc(-c3cccc(Br)c3)c3c(N)ncnc3n2)cc1` had an IC50 against Adenosine kinase [1] of 167 nM.

The IC50 is the concentration that gives 50% inhibition.

The values above are taken from ChEMBL document CHEMBL1134440, “Discovery of 4-amino-5-(3-bromophenyl)-7-(6-morpholino-pyridin-3-yl)pyrido[2,3-d]pyrimidine, an orally active, non-nucleoside adenosine kinase inhibitor” (J Med Chem, 2001).
